For experiment [1], the system named is LHRH. In words: Trial K9-5: antibody response to LHRH by ELISA. It is filed as in vivo, dog. On the technique in general: An ELISA detects its analyte on a solid surface through an enzyme-linked reagent.
The subject of experiment [2] is PBMCs from dogs immunised with CDV. In words: T-cell proliferation after in vitro stimulation of PBMC with peptide pools, tested with autologous APCs and single peptides. It is filed as cell-based, dog. On the procedure:
An alternate strategy was used to increase the precursor frequency of specific T cells recognising the CDV peptides. Fresh PBMCs obtained from these hyperimmunised dogs were subjected to stimulation in vitro with pools of all 94 peptides for 30 minutes at 37° C. The cells were then washed to remove any excess peptides and cultured for 7 days. This population of T cells was then tested with autologous APCs with every single peptide as the antigen.
To confirm this observation, the same four dogs were bled again, five weeks after receiving the dose of killed virus. The PBMCs were stimulated in vitro with pools of either all 94 peptides or peptides 21-40 (because most of the activity was in this region) and after 7 days of culture the stimulated T cells were tested against individual peptides. Significant stimulatory indices were obtained with all peptides, confirming the above results. Four more dogs which received only one dose of 3 in 1 vaccine were tested using the in vitro stimulation method and all four dogs responded to the majority of peptides shown in Table 2.
Once again the same peptides and one additional peptide P32 were tested on cells from additional dogs.

For experiment [3], the system named is LHRH. In words: Trial in BALB/c mice: antibody response to LHRH by ELISA. The class given is in vivo. The following applies: for antibody titres to LHRH: BALB/c mice. On the procedure: The canine vaccines with CDV-F derived Th-epitopes and LHRH used in Example 3 were also used to immunise BALB/c mice to investigate if the Th-epitopes would be functional in a different animal species.
All vaccines were formulated as for Example 3 except that they were diluted further so that 100 μl doses contained 2.7 nmoles of peptide and 10 μg of Iscomatrix™ and thiomersol as preservative.
Mice were vaccinated with 100 μl of the vaccine at the base of tail. Vaccinations were given at 0 and 4 weeks and animals bled at intervals after each vaccination from the retro-orbital plexus. Effective T-cell help was determined by measuring the antibody response to LHRH by ELISA.

In experiment [4] the test system is LHRH. The experiment can be described thus: Trial K9-8: antibody response to LHRH by ELISA. The class given is in vivo, dog. The following applies: for antibody responses to LHRH: Trial K9-8, T-cell-LHRH constructs named by their T-cell epitope. On the procedure: A total of 35 dogs mixed sex were used in this trial. All had been previously vaccinated with a live CDV vaccine but had not been vaccinated against LHRH.
The T-Helper epitopes were linked to a truncated form of LHRH, containing amino acids 2 to 10 of the native 10 amino acid sequence, as shown below:
All vaccines were formulated as for Example 2, ie each 1 mL dose of vaccine contained 40nmoles of peptide, 150 μg Iscomatrix™, and thiomersal as preservative.
Where dogs were vaccinated with a pool of peptides, the concentration of each peptide was adjusted to give equal concentrations and a total amount of 40 nmoles of LHRH epitope per 1 mL dose.
All dogs were vaccinated with a 1 mL dose, delivered in the scruff of the neck. Vaccinations were given at 0 and 4 weeks and venous blood samples were obtained at intervals during the trial.
Effective T-cell help was determined by measuring the antibody response to LHRH by ELISA. Biological effectiveness of the peptide based vaccine was determined by measuring the levels of progesterone in female dogs and testosterone in male dogs.

The test system of experiment [5] is PBMCs obtained from dogs immunised with peptide vaccines. The experiment can be described thus: In vitro T cell proliferation assay without enrichment, PBMCs of peptide-vaccinated dogs against Th-epitope and truncated versions. The class given is cell-based, dog. The following applies: dogs of Example 2 immunised with the respective Th-epitope-LHRH; FIGS. 2-4. On the procedure: The assay was carried out without the enrichment of PBMCs. PBMCs obtained from Ficoll gradient purification were directly tested against the respective Th-epitope and its truncated versions. […] Truncated versions of the respective Th-epitopes were also tested to more closely define the T-cell activity within the sequences. […] This implies that the T-cell activity is towards the N-terminus or middle of the 17-residue peptide.

The mark [6] stands for this setting: Table 1, Beagle Foxhound (Dog #18), hyperimmunised, PBMC stimulated with pool of all 94 peptides, 7 days culture.
Where [7] appears, read: Table 1, Beagle Foxhound (Dog #19).
[8] abbreviates: Table 1, Beagle Foxhound (Dog #20).
The mark [9] stands for this setting: Table 1, Beagle Foxhound (Dog #21).
The mark [10] stands for this setting: Table 2, Beagle Foxhound (Dog #71), one dose of 3 in 1 vaccine.
Setting [11] is: Table 3, Kelpie Foxhound (Dog #125).
The mark [12] stands for this setting: 2 weeks post second vaccination, Mouse 1.
[13] abbreviates: 2 weeks post second vaccination, Mouse 2.
The mark [14] stands for this setting: 2 weeks post second vaccination, Mouse 3.
The mark [15] stands for this setting: 2 weeks post second vaccination, Mouse 4.
[16] abbreviates: 4 weeks post first vaccination, Mouse 1, 2.7 nmoles peptide, base of tail.
The mark [17] stands for this setting: 4 weeks post first vaccination, Mouse 2.
The mark [18] stands for this setting: 4 weeks post first vaccination, Mouse 3.
Setting [19] is: 4 weeks post first vaccination, Mouse 4.
[20] abbreviates: Table 2, Beagle Foxhound (Dog #72), one dose of 3 in 1 vaccine.

9 substances from patent US7572454B2, “T helper cell epitopes” (priority 1999, dated 2009) can be followed below.

Marks after values point to notes of the source that are not given here. Ends that are not written are not given here.

“ALNNRFQIKGVELKS-(NANP)3 (ALNNRFQIKGVELKSNANPNANPNANP; synthetic control peptide)”: in experiment [1] (group average), the “Anti LHRH Titres, 2 wks post boost, Average” value worked out at 1978; the “Anti LHRH Titres, 6 wks post boost, Average” value amounted to 1941; the “Anti LHRH Titres, Prebleeds, Average” value was determined as 1794. Also, in experiment [1] (group range), the “Anti LHRH Titres, 2 wks post boost, Range” value is 1975-1982; the “Anti LHRH Titres, 6 wks post boost, Range” value is reported as 1936-1947; the “Anti LHRH Titres, Prebleeds, Range” value is 1258-2559.

With “PRYIATNGYLISNFDES (canine distemper virus; synthetic peptide from canine distemper virus fusion protein (CDV-F) designated peptide P62)”, the Stimulatory index in experiment [2] (setting [6]) was less than 2; in experiment [2] (setting [7]), 51; in experiment [2] (setting [8]), 5.6; in experiment [2] (setting [9]), 4.2; in experiment [2] (setting [10]), 3; in experiment [2] (setting [11]), 2.4. In addition, the Stimulatory index in experiment [2] (Table 5, Border Collie) is less than 2; in experiment [2] (Table 5, Fox Terrier), less than 2; in experiment [2] (Table 5, Grey hound) it was less than 2; in experiment [2] (Table 5, Kelpie Pointer) it was less than 2; in experiment [2] (Table 5, Poodle Shitzu), 24; in experiment [2] (Table 5, Terrier Cross), less than 2. Further, in experiment [3], the “antibody titres to LHRH” value is “undetectable levels”. In experiment [4], the “antibody responses to LHRH” value was “Strong antibody responses”.

As for “P35-LHRH: T-helper epitope P35 linked to truncated LHRH, amino acids 2 to 10 (SEQ ID NO: 29) (HWSYGLRPG; not fully specified (N-terminus); ends and bridges not checked; also: linked to T-helper epitope P35; listed as Homo sapiens) [Peptide P35-LHRH]”, the “antibody response to the B-cell epitope (LHRH)” value in experiment [1] (Trial K9-5, text) is on record as “strong antibody responses”. For the same substance, the Anti-LHRH antibody titre in experiment [3] (setting [12]) is recorded as 1,412; in experiment [3] (setting [13]), 800; in experiment [3] (setting [14]), less than 100; in experiment [3] (setting [15]) it was less than 100; in experiment [3] (2 weeks post second vaccination, Mouse 5) it was less than 100; in experiment [3] (setting [16]), less than 100. Also, the Anti-LHRH antibody titre is less than 100 in experiment [3] (setting [17]); less than 100 in experiment [3] (setting [18]); less than 100 in experiment [3] (setting [19]); less than 100 in experiment [3] (4 weeks post first vaccination, Mouse 5). The “Anti LHRH Titres, 2 wks post boost, GMT” value in experiment [4] (group GMT) was 103085. For the same substance, the “Anti LHRH Titres, 4 wks after primary, GMT” value in experiment [4] (group GMT) came to 2469. Moreover, in experiment [4] (group GMT), the “Anti LHRH Titres, 4 wks post boost, GMT” value stood at 58002.

For “P8-LHRH: T-helper epitope P8 linked to truncated LHRH, amino acids 2 to 10 (SEQ ID NO: 29) (HWSYGLRPG; not fully specified (N-terminus); ends and bridges not checked; also: linked to T-helper epitope P8; listed as Homo sapiens) [Peptide P8-LHRH]”, the Anti-LHRH antibody titre in experiment [3] (setting [12]), in experiment [3] (setting [13]), in experiment [3] (setting [14]), in experiment [3] (setting [15]), in experiment [3] (setting [16]) and in experiment [3] (setting [17]) was less than 100 throughout. The Anti-LHRH antibody titre in experiment [3] (setting [18]) and in experiment [3] (setting [19]) was less than 100 throughout. Also, in experiment [4], the “antibody responses to LHRH” value is “Low to undetectable antibody responses”.

Consider “AELGEYEKLLNSVLEPI (canine distemper virus; synthetic peptide from canine distemper virus fusion protein (CDV-F) designated peptide P27)”, for which the Stimulatory index is on record as 3.3 in experiment [2] (setting [6]); 34 in experiment [2] (setting [7]); 6.7 in experiment [2] (setting [8]); 14.8 in experiment [2] (setting [9]); 2.7 in experiment [2] (setting [10]); 3.5 in experiment [2] (setting [20]). In addition, the Stimulatory index was found to be 4.8 in experiment [2] (Table 2, Beagle Foxhound (Dog #73), one dose of 3 in 1 vaccine); 4.5 in experiment [2] (setting [11]); 8.5 in experiment [2] (Table 3, Kelpie Foxhound (Dog #126)). In addition, the “antibody responses to LHRH” value in experiment [4] is given as “Strong antibody responses”. Further, the “Stimulation indices to Th-epitope and its truncated versions” value in experiment [5] was “the 17 residue long peptide was a better simulator than the 15-mer”.

Turning to “PRTSDRPVSYTMNRTRS (canine distemper virus; synthetic peptide from canine distemper virus fusion protein (CDV-F) designated peptide P8)”, the Stimulatory index in experiment [2] (Table 2, Beagle Foxhound (Dog #70), one dose of 3 in 1 vaccine) is listed as 2.2; in experiment [2] (Table 5, Border Collie), 2; in experiment [2] (Table 5, Fox Terrier), less than 2; in experiment [2] (Table 5, Grey hound), 2; in experiment [2] (Table 5, Kelpie Pointer) it was 2.8; in experiment [2] (Table 5, Poodle Shitzu), 100. Moreover, the Stimulatory index in experiment [2] (Table 5, Terrier Cross) was less than 2. For the same substance, the “antibody titres to LHRH” value in experiment [3] is on record as “undetectable levels”.

Turning to “SSKTQTHTQQDRPPQPS (canine distemper virus; synthetic peptide from canine distemper virus fusion protein (CDV-F) designated peptide P2)”, the Stimulatory index is 2* in experiment [2] (setting [6]); less than 2 in experiment [2] (setting [7]); 8 in experiment [2] (setting [8]); 3.9 in experiment [2] (setting [9]); 2 in experiment [2] (Table 5, Border Collie); less than 2 in experiment [2] (Table 5, Fox Terrier). Further, the Stimulatory index in experiment [2] (Table 5, Grey hound) is given as less than 2; in experiment [2] (Table 5, Kelpie Pointer) it was 2.6; in experiment [2] (Table 5, Poodle Shitzu), 140; in experiment [2] (Table 5, Terrier Cross), less than 2. In experiment [3], the “antibody titres to LHRH” value was “undetectable levels”. Also, the “antibody responses to LHRH” value in experiment [4] is reported as “Low to undetectable antibody responses”.

With “SPDKLLTFIASDTCPLV (canine distemper virus; synthetic peptide from canine distemper virus fusion protein (CDV-F) designated peptide P75)”, the Stimulatory index in experiment [2] (Table 4, Beagle Foxhound #18) is 2.5; in experiment [2] (Table 4, Beagle Foxhound #21), 7.2; in experiment [2] (Table 4, Poodle Shitzu), 10; in experiment [2] (Table 5, Border Collie), less than 2; in experiment [2] (Table 5, Fox Terrier), less than 2; in experiment [2] (Table 5, Grey hound), less than 2. Moreover, the Stimulatory index in experiment [2] (Table 5, Kelpie Pointer) is listed as less than 2; in experiment [2] (Table 5, Poodle Shitzu) it was 10; in experiment [2] (Table 5, Terrier Cross) it was less than 2. Moreover, in experiment [2] (dogs of various breeds immunised with CDV), the “reaction with peripheral blood mononuclear cells” value is listed as “react strongly”. For the same substance, the “antibody titres to LHRH” value in experiment [3] is on record as “low antibody titres”. Also, the “antibody responses to LHRH” value in experiment [4] is given as “Strong antibody responses”.

On to “NLNAQAIQSLRTSLEQS (canine distemper virus; synthetic peptide from canine distemper virus fusion protein (CDV-F) designated peptide P37)”, for which the Stimulatory index turned out to be 6.9 in experiment [2] (setting [6]); 10.9 in experiment [2] (setting [7]); 8.2 in experiment [2] (setting [8]); 26 in experiment [2] (setting [9]); 1.7 in experiment [2] (setting [20]); 2.5 in experiment [2] (setting [11]). Also, the Stimulatory index in experiment [2] (Table 5, Border Collie) is listed as less than 2; in experiment [2] (Table 5, Fox Terrier), less than 2; in experiment [2] (Table 5, Grey hound), less than 2; in experiment [2] (Table 5, Kelpie Pointer), 2; in experiment [2] (Table 5, Poodle Shitzu), less than 2; in experiment [2] (Table 5, Terrier Cross), 2.
